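Following 48 hours of exposure in 96-well plates, responses at five concentrations were used to interpolate endpoints linearly. GI50: concentration for 50% inhibition of growth.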 Calls of active or inactive are those of the source. No stated cut-off is given here; in the data, active = GI50 up to about 1.1 µM and inactive = higher.
Experiments:
Assay in all cases: NCI anticancer screen, dose series, 48 h
Hs-578T = test system: Hs-578T
ACHN = test system: ACHN
SK-MEL-5 = test system: SK-MEL-5
T47D = test system: T47D
OVCAR-5 = test system: OVCAR-5
DU-145 = test system: DU-145
HOP-92 = test system: HOP-92
A498 = test system: A498
UO-31 = test system: UO-31
RXF 393 = test system: RXF 393
SN12C = test system: SN12C
HCT-116 = test system: HCT-116
MDA-N = test system: MDA-N
SW-620 = test system: SW-620
MOLT-4 = test system: MOLT-4
HT-29 = test system: HT-29
SF-295 = test system: SF-295
MCF7 = test system: MCF7
EKVX = test system: EKVX
NCI-H226 = test system: NCI-H226

Compound | GI50 (Hs-578T) | GI50 (ACHN) | GI50 (SK-MEL-5) | GI50 (T47D) | GI50 (OVCAR-5) | GI50 (DU-145) | GI50 (HOP-92) | GI50 (A498) | GI50 (UO-31) | GI50 (RXF 393) | GI50 (SN12C) | GI50 (HCT-116) | GI50 (MDA-N) | GI50 (SW-620) | GI50 (MOLT-4) | GI50 (HT-29) | GI50 (SF-295) | GI50 (MCF7) | GI50 (EKVX) | GI50 (NCI-H226)
Cc1c(/N=N/c2ccccc2)c(C)n(C2OC(CO)C(O)C(O)C2O)c(=S)c1C#N (stereo not drawn) | 1 µM (active) | 30.5 µM (inactive) | 12.3 µM (inactive) | 39.2 µM (inactive) | 15.1 µM (inactive) | 25.1 µM (inactive) | 16.6 µM (inactive) | 34.9 µM (inactive) | 26.2 µM (inactive) | 33 µM (inactive) | 20.7 µM (inactive) | 21.1 µM (inactive) | 19.9 µM (inactive) | 29.4 µM (inactive) | 20.8 µM (inactive) | 32.7 µM (inactive) | 34.5 µM (inactive) | 22.8 µM (inactive) | – | –
Cc1ccc(C)c2c1NC(=O)/C2=N\Nc1ccccc1[N+](=O)[O-] | 35.7 µM (inactive) | > 100 µM (inactive) | > 100 µM (inactive) | > 100 µM (inactive) | > 100 µM (inactive) | > 100 µM (inactive) | 40.7 µM (inactive) | > 100 µM (inactive) | > 100 µM (inactive) | > 100 µM (inactive) | > 100 µM (inactive) | > 100 µM (inactive) | > 100 µM (inactive) | > 100 µM (inactive) | > 100 µM (inactive) | – | > 100 µM (inactive) | > 100 µM (inactive) | > 100 µM (inactive) | –
COC1(OC)CC(CO)(COc2cc(Cl)nc(N)n2)C1 | > 100 µM (inactive) | > 100 µM (inactive) | > 100 µM (inactive) | > 100 µM (inactive) | > 100 µM (inactive) | > 100 µM (inactive) | > 100 µM (inactive) | – | > 100 µM (inactive) | > 100 µM (inactive) | > 100 µM (inactive) | > 100 µM (inactive) | > 100 µM (inactive) | > 100 µM (inactive) | > 100 µM (inactive) | > 100 µM (inactive) | > 100 µM (inactive) | > 100 µM (inactive) | > 100 µM (inactive) | > 100 µM (inactive)
CC12ON(P(=O)(c3ccccc3)c3ccccc3)C(C)(c3ccccc31)c1ccccc12 | > 100 µM (inactive) | > 100 µM (inactive) | > 100 µM (inactive) | 51.3 µM (inactive) | > 100 µM (inactive) | > 100 µM (inactive) | > 100 µM (inactive) | – | > 100 µM (inactive) | 81.7 µM (inactive) | > 100 µM (inactive) | > 100 µM (inactive) | > 100 µM (inactive) | > 100 µM (inactive) | 32.7 µM (inactive) | > 100 µM (inactive) | > 100 µM (inactive) | 0.675 µM (active) | > 100 µM (inactive) | > 100 µM (inactive)
CCCCCCCCCc1c(O)c(O)c(CCCCCCCCC)c(CCCCCCCCC)c1CCCCCCCCC | > 100 µM (inactive) | > 100 µM (inactive) | > 100 µM (inactive) | > 100 µM (inactive) | > 100 µM (inactive) | > 100 µM (inactive) | – | > 100 µM (inactive) | – | > 100 µM (inactive) | > 100 µM (inactive) | > 100 µM (inactive) | 50.6 µM (inactive) | > 100 µM (inactive) | > 100 µM (inactive) | > 100 µM (inactive) | > 100 µM (inactive) | 8.18 µM (inactive) | > 100 µM (inactive) | > 100 µM (inactive)
CC(C)(C)C(=O)N(C(=S)OCc1ccccn1)c1ccccc1 | 39 µM (inactive) | 38.5 µM (inactive) | 20 µM (inactive) | 20 µM (inactive) | 32.4 µM (inactive) | 38.6 µM (inactive) | – | > 100 µM (inactive) | 27.8 µM (inactive) | 18.2 µM (inactive) | 31.3 µM (inactive) | 23.1 µM (inactive) | 41.6 µM (inactive) | 47.6 µM (inactive) | 18.8 µM (inactive) | 27.6 µM (inactive) | – | 19.8 µM (inactive) | 15.5 µM (inactive) | 67.8 µM (inactive)
COc1ccc(/C=C/C(=O)c2cc(CN(C)C)c(O)c(CN(C)C)c2)cc1 | 43.6 µM (inactive) | 27.9 µM (inactive) | 16.2 µM (inactive) | 19.6 µM (inactive) | > 100 µM (inactive) | 34.2 µM (inactive) | – | 19.7 µM (inactive) | 25.2 µM (inactive) | 31.7 µM (inactive) | 21.9 µM (inactive) | 24.2 µM (inactive) | 21.2 µM (inactive) | 36.9 µM (inactive) | 28.2 µM (inactive) | 27.7 µM (inactive) | 26.8 µM (inactive) | 36.6 µM (inactive) | 49.8 µM (inactive) | 40.1 µM (inactive)
Oc1cc(O)c2c(c1)O[C@H](c1cc(O)c(O)c(O)c1)[C@H](O)C2 [EPIGALLOCATECHIN] | 52 µM (inactive) | 21.2 µM (inactive) | 16.9 µM (inactive) | 37.2 µM (inactive) | 15.6 µM (inactive) | 63.7 µM (inactive) | 20.7 µM (inactive) | > 100 µM (inactive) | 18.5 µM (inactive) | 15.2 µM (inactive) | 20.5 µM (inactive) | 19.2 µM (inactive) | 18.8 µM (inactive) | 17.5 µM (inactive) | 14.6 µM (inactive) | – | 30.5 µM (inactive) | 20.8 µM (inactive) | > 10 µM (inactive) | 26.4 µM (inactive)
